Several values for one entry are separate records, joined by “and”; a condition that tells them apart may be missing. Equal entries are not always repeated. Inconclusive results and toxic doses are left out.
Test system: L1210 leukemia ip in BDF1 mice, survival T/C
Assay: NCI In Vivo Anticancer Drug Screen. Data for tumor model L1210 Leukemia (intraperitoneal) in B6D2F1 (BDF1) mice
Conditions: endpoint: mean survival time, higher = longer survival
Procedure, shortened: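 Survival endpoint. Drug-treated group vs vehicle group, expressed as T divided by C. Tumor passaged by transplantation.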

[1] = dose: 100.0 mg/kg/injection, schedule: Q04DX003 (ip), vehicle: saline with Tween-80
[2] = dose: 200.0 mg/kg/injection, schedule: Q04DX003 (ip), vehicle: saline with Tween-80
[3] = dose: 400.0 mg/kg/injection, schedule: Q04DX003 (ip), vehicle: saline with Tween-80
[4] = dose: 100.0 mg/kg/injection, schedule: Q04DX003 (ip), vehicle: Klucel (hydroxypropylcellulose) (HPC)
[5] = dose: 100.0 mg/kg/injection, schedule: Q01DX009 (ip), vehicle: Klucel (hydroxypropylcellulose) (HPC)
[6] = dose: 200.0 mg/kg/injection, schedule: Q01DX009 (ip), vehicle: Klucel (hydroxypropylcellulose) (HPC)
[7] = dose: 75.0 mg/kg/injection, schedule: Q01DX001 (ip), vehicle: saline
[8] = dose: 150.0 mg/kg/injection, schedule: Q01DX001 (ip), vehicle: saline
[9] = dose: 100.0 mg/kg/injection, schedule: Q01DX009 (ip), vehicle: saline
[10] = dose: 100.0 mg/kg/injection, schedule: Q04DX003 (ip), vehicle: saline
[11] = dose: 200.0 mg/kg/injection, schedule: Q04DX003 (ip), vehicle: saline
[12] = dose: 400.0 mg/kg/injection, schedule: Q01DX009 (ip), vehicle: saline
[13] = dose: 400.0 mg/kg/injection, schedule: Q04DX003 (ip), vehicle: saline
[14] = dose: 200.0 mg/kg/injection, schedule: Q01DX009 (ip), vehicle: saline
[15] = dose: 100.0 mg/kg/injection, schedule: Q04DX002 (ip), vehicle: saline with Tween-80
[16] = dose: 200.0 mg/kg/injection, schedule: Q04DX002 (ip), vehicle: saline with Tween-80
[17] = dose: 400.0 mg/kg/injection, schedule: Q04DX002 (ip), vehicle: saline with Tween-80
[18] = dose: 200.0 mg/kg/injection, schedule: Q01DX001 (ip), vehicle: saline
[19] = dose: 100.0 mg/kg/injection, schedule: Q01DX001 (ip), vehicle: saline
[20] = dose: 400.0 mg/kg/injection, schedule: Q01DX001 (ip), vehicle: saline

CC(=O)OCC1OC(Oc2c(C)cc([N+](=O)[O-])cc2[N+](=O)[O-])C(OC(C)=O)C(OC(C)=O)C1OC(C)=O (configuration not stated)
T/C [1]: 94 % of control | T/C [2]: 100 % of control | T/C [3]: 100 % of control

[O-][n+]1onc2ncccc21
T/C (dose: 25.0 mg/kg/injection, schedule: Q04DX003 (ip), vehicle: Klucel (hydroxypropylcellulose) (HPC)): 108 % of control | T/C (dose: 50.0 mg/kg/injection, schedule: Q04DX003 (ip), vehicle: Klucel (hydroxypropylcellulose) (HPC)): 94 % of control | T/C [4]: 100 % of control and 102 % of control

CCCc1ccccc1O
T/C (dose: 100.0 mg/kg/injection, schedule: Q04DX003 (ip), vehicle: alcohol): 97 % of control | T/C (dose: 200.0 mg/kg/injection, schedule: Q04DX003 (ip), vehicle: alcohol): 94 % of control

CCOC(=O)c1ccc(=O)n(C(C)C)c1
T/C [5]: 104 % of control | T/C [6]: 98 % of control | T/C (dose: 400.0 mg/kg/injection, schedule: Q01DX009 (ip), vehicle: Klucel (hydroxypropylcellulose) (HPC)): 102 % of control

N#C/C(=C\c1cc(Cl)cc(Cl)c1O)c1ccc([N+](=O)[O-])cc1
T/C [1]: 90 % of control | T/C [2]: 92 % of control

Cc1nc(N)sc1N=Nc1ccccc1Br
T/C [7]: 103 % of control | T/C [8]: 108 % of control

CC1CCCC(C)N1C1=NCCO1 (configuration not stated)
T/C (dose: 5.0 mg/kg/injection, schedule: Q01DX009 (ip), vehicle: saline with Tween-80): 95 % of control | T/C (dose: 10.0 mg/kg/injection, schedule: Q01DX009 (ip), vehicle: saline with Tween-80): 97 % of control | T/C (dose: 20.0 mg/kg/injection, schedule: Q01DX009 (ip), vehicle: saline with Tween-80): 95 % of control

COc1ccc(OC)c(NC(=O)Oc2ccc(Cl)cc2C)c1
T/C [4]: 97 % of control | T/C (dose: 200.0 mg/kg/injection, schedule: Q04DX003 (ip), vehicle: Klucel (hydroxypropylcellulose) (HPC)): 98 % of control | T/C (dose: 400.0 mg/kg/injection, schedule: Q04DX003 (ip), vehicle: Klucel (hydroxypropylcellulose) (HPC)): 97 % of control

O=C(Cc1ccccc1)NC(CSSCC(NC(=O)Cc1ccccc1)C(=O)O)C(=O)O (configuration not stated)
T/C (dose: 88.0 mg/kg/injection, schedule: Q01DX009 (ip), vehicle: Klucel (hydroxypropylcellulose) (HPC)): 93 % of control | T/C [9]: 100 % of control | T/C [1]: 95 % of control | T/C [10]: 105 % of control and 97 % of control | T/C (dose: 132.0 mg/kg/injection, schedule: Q01DX009 (ip), vehicle: Klucel (hydroxypropylcellulose) (HPC)): 90 % of control | T/C [6]: 100 % of control | T/C [2]: 98 % of control | T/C [11]: 107 % of control and 100 % of control | T/C [12]: 103 % of control | T/C [3]: 98 % of control | T/C [13]: 96 % of control and 100 % of control

CCOC(=O)NNC(=O)Nc1ccc(Cl)c([N+](=O)[O-])c1
T/C [9]: 104 % of control | T/C [14]: 93 % of control

Cc1cc(C(O)c2ccccn2)c2ccccc2n1 (configuration not stated)
T/C (dose: 50.0 mg/kg/injection, schedule: Q01DX009 (ip), vehicle: Klucel (hydroxypropylcellulose) (HPC)): 102 % of control | T/C (dose: 100.0 mg/kg/injection, schedule: Q01DX001 (ip), vehicle: Klucel (hydroxypropylcellulose) (HPC)): 106 % of control | T/C [5]: 96 % of control | T/C (dose: 200.0 mg/kg/injection, schedule: Q01DX001 (ip), vehicle: Klucel (hydroxypropylcellulose) (HPC)): 96 % of control

COC1C(O)C(CO)OC1n1cnc2c(=S)nc[nH]c21 (configuration not stated)
T/C (dose: 50.0 mg/kg/injection, schedule: Q01DX001 (ip), vehicle: carboxymethylcellulose (CMC)): 102 % of control | T/C (dose: 88.8 mg/kg/injection, schedule: Q01DX001 (ip), vehicle: carboxymethylcellulose (CMC)): 102 % of control and 112 % of control | T/C (dose: 100.0 mg/kg/injection, schedule: Q01DX001 (ip), vehicle: carboxymethylcellulose (CMC)): 102 % of control | T/C (dose: 133.0 mg/kg/injection, schedule: Q01DX001 (ip), vehicle: carboxymethylcellulose (CMC)): 110 % of control and 116 % of control | T/C (dose: 200.0 mg/kg/injection, schedule: Q01DX001 (ip), vehicle: carboxymethylcellulose (CMC)): 110 % of control and 116 % of control | T/C (dose: 300.0 mg/kg/injection, schedule: Q01DX001 (ip), vehicle: carboxymethylcellulose (CMC)): 102 % of control and 116 % of control | T/C (dose: 400.0 mg/kg/injection, schedule: Q01DX001 (ip), vehicle: carboxymethylcellulose (CMC)): 102 % of control

CC(C)(C)NC(=O)Nc1cccc2c(O)cccc12
T/C [15]: 95 % of control | T/C [16]: 95 % of control | T/C [17]: 98 % of control

COc1nn(O)cc(C)c1=NC(C)=O
T/C (dose: 12.5 mg/kg/injection, schedule: Q04DX002 (ip), vehicle: saline): 102 % of control | T/C (dose: 25.0 mg/kg/injection, schedule: Q04DX002 (ip), vehicle: saline): 98 % of control | T/C (dose: 50.0 mg/kg/injection, schedule: Q04DX002 (ip), vehicle: saline): 105 % of control

O=C1OCCC1n1ccc(=O)[nH]c1=O (configuration not stated)
T/C [9]: 111 % of control | T/C [14]: 105 % of control | T/C [12]: 106 % of control

CCCCCCC(/C=N\NC(=O)c1cccc2ccccc12)=C\c1ccccc1
T/C [18]: 97 % of control

CC(=O)N1CCc2nc3ccccc3cc21
T/C (dose: 37.5 mg/kg/injection, schedule: Q01DX009 (ip), vehicle: saline with Tween-80): 96 % of control | T/C (dose: 37.5 mg/kg/injection, schedule: Q04DX003 (ip), vehicle: saline): 104 % of control | T/C [7]: 95 % of control | T/C (dose: 75.0 mg/kg/injection, schedule: Q01DX009 (ip), vehicle: saline with Tween-80): 94 % of control | T/C (dose: 75.0 mg/kg/injection, schedule: Q04DX003 (ip), vehicle: saline): 104 % of control | T/C [8]: 101 % of control | T/C (dose: 150.0 mg/kg/injection, schedule: Q01DX009 (ip), vehicle: saline with Tween-80): 88 % of control | T/C (dose: 150.0 mg/kg/injection, schedule: Q04DX003 (ip), vehicle: saline): 106 % of control

OCC1OC(n2cnc3c(SCc4ccccc4)ncnc32)C(O)C1O (configuration not stated)
T/C (dose: 38.5 mg/kg/injection, schedule: Q01DX009 (ip), vehicle: saline): 102 % of control | T/C (dose: 58.0 mg/kg/injection, schedule: Q01DX009 (ip), vehicle: carboxymethylcellulose (CMC)): 111 % of control | T/C (dose: 58.0 mg/kg/injection, schedule: Q01DX009 (ip), vehicle: saline): 124 % of control | T/C (dose: 88.0 mg/kg/injection, schedule: Q01DX009 (ip), vehicle: carboxymethylcellulose (CMC)): 124 % of control | T/C (dose: 88.0 mg/kg/injection, schedule: Q01DX009 (ip), vehicle: saline): 152 % of control | T/C (dose: 132.0 mg/kg/injection, schedule: Q01DX009 (ip), vehicle: carboxymethylcellulose (CMC)): 113 % of control | T/C (dose: 132.0 mg/kg/injection, schedule: Q01DX009 (ip), vehicle: saline): 152 % of control | T/C (dose: 200.0 mg/kg/injection, schedule: Q01DX009 (ip), vehicle: carboxymethylcellulose (CMC)): 105 % of control

c1ccc(-n2nnnc2-c2nnnn2-c2ccccc2)cc1
T/C [19]: 98 % of control | T/C [18]: 98 % of control | T/C [20]: 101 % of control

O=C(O)CSc1ccc([N+](=O)[O-])cc1[N+](=O)[O-]
T/C (dose: 100.0 mg/kg/injection, schedule: Q04DX002 (ip), vehicle: Klucel (hydroxypropylcellulose) (HPC)): 100 % of control | T/C (dose: 200.0 mg/kg/injection, schedule: Q04DX002 (ip), vehicle: Klucel (hydroxypropylcellulose) (HPC)): 96 % of control | T/C (dose: 400.0 mg/kg/injection, schedule: Q04DX002 (ip), vehicle: Klucel (hydroxypropylcellulose) (HPC)): 96 % of control

CCOC(=O)/C=C(/N)c1c(C)[nH]c2ccccc12
T/C [19]: 102 % of control | T/C [18]: 113 % of control | T/C [20]: 87 % of control

CN1C(=O)N(C)P1(Cl)(Cl)Cl
T/C [15]: 103 % of control | T/C [16]: 95 % of control | T/C [17]: 92 % of control

CC(C)CCCC(C)C1CCC2C3CC(=O)NC45CC4CCC5(C)C3CCC12C (configuration not stated)
T/C [1]: 116 % of control | T/C [2]: 97 % of control | T/C [3]: 92 % of control

Nc1nc(N)c2cc(CNc3ccc(Cl)c(C(=O)NC(CC(=O)O)C(=O)O)c3)cnc2n1 (configuration not stated)
T/C [9]: 95 % of control | T/C [10]: 106 % of control | T/C [14]: 94 % of control | T/C [11]: 93 % of control | T/C [12]: 89 % of control | T/C [13]: 97 % of control

Reference: PubChem BioAssay AID248 (DTP/NCI, 2004)
